Experimental data taken from US11497729B2, “Methods and materials for treating cancer” (Mayo Foundation for Medical Education and Research, priority 2016, dated 2022).
“Also recorded” adds a separate entry of the source.

How the values were obtained:
HER4 = assay: Western blot of ZR-75-1 cell lysates, HER4; type: cell-based; conditions: ZR-75-1 cells, 10 μM P005091 for 12 hours; FIG. 5
Experimental: (§1) Breast cancer cells ZR-75-1 were treated with either 1% DMSO or 10 μM P005091 for 12 hours. Cell lysates were subjected to western blot with indicated antibodies (FIG. 5).

HER3 = assay: Western blot of ZR-75-1 cell lysates, HER3; type: cell-based; conditions: ZR-75-1 cells, 10 μM P005091 for 12 hours; FIG. 5
Experimental: as §1

HER2 = assay: Western blot of ZR-75-1 cell lysates, HER2; type: cell-based; conditions: ZR-75-1 cells, 10 μM P005091 for 12 hours; FIG. 5
Experimental: as §1

HER1 (EGFR) = assay: Western blot of ZR-75-1 cell lysates, HER1; type: cell-based; conditions: ZR-75-1 cells, 10 μM P005091 for 12 hours; FIG. 5
Experimental: as §1

[1] = system: HER2+ patient derived xenograft; assay: HER2+ patient derived xenograft model in SCID mice; type: in vivo; conditions: Herceptin 15 mg/kg and P005091 10 mg/kg intraperitoneally once a week, FIG. 4C
Experimental: (§2) P005091 increased the efficacy of the HER2 inhibitor, trastuzumab, in HER2^+ breast cancer cells, xenografts, and PDX models. HER2^+ breast cancer cells were treated with indicated concentrations of Herceptin with or without 10 μM P005091 for 72 hours. Cell survival was determined by MTS assays. Data was shown as mean values for three independent experiments, and error bars represent standard error of the mean (SEM) (n=3) (FIG. 4A). Tumor xenografts were initiated by subcutaneous inoculation of Bt474 parental and Bt474 Herceptin resistance cells in the lower back of SCID mice. Herceptin (15 mg/kg) and P005091 (10 mg/kg) were administered intraperitoneally once a week for the entire duration of the study. […] A HER2^+ patient derived xenograft model was tested by inoculation of tissues in the lower back of SCID mice (FIG. 4C). Drug treatment was same as described above. Data represent the mean±SD of 6 mice in each group.

[2] = system: HER2+ breast cancer cells; assay: Cell survival by MTS assay, Herceptin with or without P005091; type: cell-based; conditions: FIG. 4A
Experimental: as §2

**Q.** What does the source list for CC(=O)c1cc([N+](=O)[O-])c(Sc2cccc(Cl)c2Cl)s1 [P005091, 1-[5-(2,3-dichlorophenyl)sulfanyl-4-nitrothiophen-2-yl]ethanone]?
**A.** HER4 protein level by Western blot (HER4): down regulated; HER3 protein level by Western blot (HER3): down regulated; HER2 protein level by Western blot (HER2): down regulated; HER1 (EGFR) protein level by Western blot (HER1 (EGFR)): down regulated; sensitivity of PDX model to treatment [1]: dramatically sensitized; sensitization effect in HER2 resistant breast cancer cell lines ([2]; HER2 resistant breast cancer cell lines): sensitization effect occurred; sensitization of HER2+ breast cancer cells to trastuzumab treatment (cell survival) ([2]; four different HER2+ breast cancer cells, 10 μM P005091 with Herceptin for 72 hours): sensitizes; also recorded: dramatically sensitized
